{
  "source": "BindingDB's records for doi:10.1021/acs.jmedchem.6b01270",
  "about": "(University of Tennessee Health Science Center, 2017)",
  "data": [
    {"experiment": "Inhibition of ATX (unknown origin) expressed in human A2058 cells assessed as inhibition of LPC-induced cell invasion after 20 hrs by calcein-AM dye based matrigel-mediated Boyden chamber assay", "units": {"IC50": "nM"}, "values": [
      {"smiles": "O=C(Nc1ccc(F)c(F)c1)c1cc(S(=O)(=O)N2CCOCC2)c(Cl)cc1Cl", "IC50": 528},
      {"smiles": "O=C(Nc1cc(F)c(Cl)c(F)c1)c1cc(S(=O)(=O)N2CCOCC2)c(Cl)cc1Cl", "IC50": 740},
      {"smiles": "O=S(=O)(c1cc(C(=S)Nc2cc(F)c(F)c(F)c2)c(Cl)cc1Cl)N1CCOCC1", "IC50": 403}
    ]}
  ]
}
